Experimental data taken from the NIST ThermoML archive (doi:10.1021/je1005517).
± gives the expanded uncertainty stated by the source.

Test: activity coefficient (dimensionless); of the first substance listed, at infinite dilution; xn = mol fraction of the nth substance listed
Conditions: Liquid, GC, x1 = 0

Row | SMILES | activity coefficient (333.15 K, 101 kPa) | activity coefficient (338.15 K, 101 kPa) | activity coefficient (343.15 K, 101 kPa) | activity coefficient (348.15 K, 101 kPa) | activity coefficient (353.15 K, 101 kPa) | activity coefficient (333.15 K, 101.3 kPa) | activity coefficient (338.15 K, 101.3 kPa) | activity coefficient (343.15 K, 101.3 kPa) | activity coefficient (348.15 K, 101.3 kPa) | activity coefficient (353.15 K, 101.3 kPa)
1 | C1CCCCC1 [cyclohexane] + CCCCCCCCCCCCCCCCCCO | 0.0365 ± 0.0022 | 0.0337 ± 0.002 | 0.0315 ± 0.0019 | 0.0294 ± 0.0018 | 0.0274 ± 0.0016 | – | – | – | – | –
2 | CCCCOC(C)=O [butyl ethanoate] + CCCCCCCCCCCCCCCCCCCCO | – | 0.14 ± 0.0084 | 0.131 ± 0.0079 | 0.123 ± 0.0074 | 0.115 ± 0.0069 | – | – | – | – | –
3 | CCCCC [pentane] + CCCCCCCCCCCCCCCCCCO | 0.0292 ± 0.0018 | 0.0272 ± 0.0016 | 0.0259 ± 0.0016 | 0.0243 ± 0.0015 | 0.0231 ± 0.0014 | – | – | – | – | –
4 | CCCCCC [hexane] + CCCCCCCCCCCCCCCCCCCCO | – | 0.129 ± 0.0077 | 0.124 ± 0.0074 | 0.119 ± 0.0072 | 0.115 ± 0.0069 | – | – | – | – | –
5 | CCCCO [butan-1-ol] + CCCCCCCCCCCCCCCCCCO | – | – | – | – | – | 0.154 ± 0.0092 | 0.136 ± 0.008 | 0.121 ± 0.0073 | 0.11 ± 0.0066 | 0.0992 ± 0.006
6 | CCCCCCCC [octane] + CCCCCCCCCCCCCCCCCCO | 0.0513 ± 0.0031 | 0.0497 ± 0.003 | 0.0485 ± 0.0029 | 0.0473 ± 0.0028 | 0.0461 ± 0.0028 | – | – | – | – | –
7 | Cc1ccccc1 [toluene] + CCCCCCCCCCCCCCCCCCCCO | – | 0.544 ± 0.033 | 0.479 ± 0.029 | 0.421 ± 0.025 | 0.373 ± 0.022 | – | – | – | – | –
8 | CCCO [propan-1-ol] + CCCCCCCCCCCCCCCCCCO | – | – | – | – | – | 0.0722 ± 0.0043 | 0.0625 ± 0.0038 | 0.0597 ± 0.0036 | 0.055 ± 0.003 | 0.051 ± 0.003
9 | ClC(Cl)Cl [trichloromethane] + CCCCCCCCCCCCCCCCCCCCO | – | 0.0632 ± 0.0038 | 0.0622 ± 0.0037 | 0.0612 ± 0.0037 | 0.0604 ± 0.0036 | – | – | – | – | –
10 | CC#N [acetonitrile] + CCCCCCCCCCCCCCCCCCO | 0.108 ± 0.0065 | 0.0969 ± 0.0058 | 0.0901 ± 0.0054 | 0.0832 ± 0.005 | 0.0766 ± 0.0046 | – | – | – | – | –
11 | C=CCCC [1-pentene] + CCCCCCCCCCCCCCCCCCCCO | – | 0.0813 ± 0.0049 | 0.0742 ± 0.0045 | 0.0664 ± 0.004 | 0.06 ± 0.0036 | – | – | – | – | –
12 | CC(C)=O [acetone] + CCCCCCCCCCCCCCCCCCCCO | – | 0.0557 ± 0.0033 | 0.0572 ± 0.0034 | 0.0587 ± 0.0035 | 0.0602 ± 0.0036 | – | – | – | – | –
13 | C1CCCCC1 [cyclohexane] + CCCCCCCCCCCCCCCCCCCCO | – | 0.108 ± 0.0065 | 0.102 ± 0.0061 | 0.0969 ± 0.0058 | 0.0918 ± 0.0055 | – | – | – | – | –
14 | C1CCOC1 [tetrahydrofuran] + CCCCCCCCCCCCCCCCCCCCO | – | 0.0581 ± 0.0035 | 0.0543 ± 0.0033 | 0.0506 ± 0.003 | 0.0471 ± 0.0028 | – | – | – | – | –
15 | CCCCl [1-chloropropane] + CCCCCCCCCCCCCCCCCCO | – | – | – | – | – | 0.0331 ± 0.002 | 0.0294 ± 0.0018 | 0.0269 ± 0.0016 | 0.0245 ± 0.0015 | 0.0225 ± 0.0014
16 | CCOC(C)=O [ethyl acetate] + CCCCCCCCCCCCCCCCCCO | – | – | – | – | – | 0.0445 ± 0.0027 | 0.0408 ± 0.0024 | 0.0384 ± 0.0023 | 0.036 ± 0.0022 | 0.0335 ± 0.002
17 | CO [methanol] + CCCCCCCCCCCCCCCCCCCCO | – | 0.122 ± 0.0073 | 0.0967 ± 0.0058 | 0.0737 ± 0.0044 | 0.0574 ± 0.0034 | – | – | – | – | –
18 | CCCO [propan-1-ol] + CCCCCCCCCCCCCCCCCCCCO | – | 0.213 ± 0.013 | 0.193 ± 0.012 | 0.175 ± 0.011 | 0.159 ± 0.0095 | – | – | – | – | –
19 | ClC(Cl)(Cl)Cl [tetrachloromethane] + CCCCCCCCCCCCCCCCCCO | 0.0288 ± 0.0017 | 0.0285 ± 0.0017 | 0.0283 ± 0.0017 | 0.028 ± 0.0017 | 0.0278 ± 0.0017 | – | – | – | – | –
20 | CCOC(C)=O [ethyl acetate] + CCCCCCCCCCCCCCCCCCCCO | – | 0.123 ± 0.0074 | 0.11 ± 0.0066 | 0.099 ± 0.0059 | 0.0888 ± 0.0053 | – | – | – | – | –
21 | CCOCC [diethyl ether] + CCCCCCCCCCCCCCCCCCO | 0.0257 ± 0.0015 | 0.0235 ± 0.0014 | 0.0219 ± 0.0013 | 0.0204 ± 0.0012 | 0.019 ± 0.001 | – | – | – | – | –
22 | CCCCCC [hexane] + CCCCCCCCCCCCCCCCCCO | 0.0551 ± 0.0033 | 0.0468 ± 0.0028 | 0.0411 ± 0.0025 | 0.0359 ± 0.0022 | 0.0315 ± 0.0019 | – | – | – | – | –
